Assay results from ChEMBL document CHEMBL3887002, “Biaryl ether sulfonamides and their use as therapeutic agents” (2016).

Molecular target: Sodium channel protein type 9 subunit alpha (Homo sapiens, UniProt Q15858)
Assay: Electrophysiological Assay (In vitro Assay): Patch voltage clamp electrophysiology allows for the direct measurement and quantification of block of voltage-gated sodium channels (Nav's), and allows the determination of the time- and voltage-dependence of block which has been interpreted as differential binding to the resting, open, and inactivated states of the sodium channel (Hille, B., Journal of General Physiology (1977), 69: 497-515).The following patch voltage clamp electrophysiology studies were performed on representative compounds of the invention using human embryonic kidney cells (HEK), permanently transfected with an expression vector containing the full-length cDNA coding for the desired human sodium channel α-subunit, grown in culture media containing 10% FBS, 1% PSG, and 0.5 mg/mL G418 at 37° C. with 5% CO2. […] Nav1.7 and Nav1.5 cDNAs (NM_00297
Format: cell-based, HEK293

Sequence of Sodium channel protein type 9 subunit alpha (Q15858 whole entry): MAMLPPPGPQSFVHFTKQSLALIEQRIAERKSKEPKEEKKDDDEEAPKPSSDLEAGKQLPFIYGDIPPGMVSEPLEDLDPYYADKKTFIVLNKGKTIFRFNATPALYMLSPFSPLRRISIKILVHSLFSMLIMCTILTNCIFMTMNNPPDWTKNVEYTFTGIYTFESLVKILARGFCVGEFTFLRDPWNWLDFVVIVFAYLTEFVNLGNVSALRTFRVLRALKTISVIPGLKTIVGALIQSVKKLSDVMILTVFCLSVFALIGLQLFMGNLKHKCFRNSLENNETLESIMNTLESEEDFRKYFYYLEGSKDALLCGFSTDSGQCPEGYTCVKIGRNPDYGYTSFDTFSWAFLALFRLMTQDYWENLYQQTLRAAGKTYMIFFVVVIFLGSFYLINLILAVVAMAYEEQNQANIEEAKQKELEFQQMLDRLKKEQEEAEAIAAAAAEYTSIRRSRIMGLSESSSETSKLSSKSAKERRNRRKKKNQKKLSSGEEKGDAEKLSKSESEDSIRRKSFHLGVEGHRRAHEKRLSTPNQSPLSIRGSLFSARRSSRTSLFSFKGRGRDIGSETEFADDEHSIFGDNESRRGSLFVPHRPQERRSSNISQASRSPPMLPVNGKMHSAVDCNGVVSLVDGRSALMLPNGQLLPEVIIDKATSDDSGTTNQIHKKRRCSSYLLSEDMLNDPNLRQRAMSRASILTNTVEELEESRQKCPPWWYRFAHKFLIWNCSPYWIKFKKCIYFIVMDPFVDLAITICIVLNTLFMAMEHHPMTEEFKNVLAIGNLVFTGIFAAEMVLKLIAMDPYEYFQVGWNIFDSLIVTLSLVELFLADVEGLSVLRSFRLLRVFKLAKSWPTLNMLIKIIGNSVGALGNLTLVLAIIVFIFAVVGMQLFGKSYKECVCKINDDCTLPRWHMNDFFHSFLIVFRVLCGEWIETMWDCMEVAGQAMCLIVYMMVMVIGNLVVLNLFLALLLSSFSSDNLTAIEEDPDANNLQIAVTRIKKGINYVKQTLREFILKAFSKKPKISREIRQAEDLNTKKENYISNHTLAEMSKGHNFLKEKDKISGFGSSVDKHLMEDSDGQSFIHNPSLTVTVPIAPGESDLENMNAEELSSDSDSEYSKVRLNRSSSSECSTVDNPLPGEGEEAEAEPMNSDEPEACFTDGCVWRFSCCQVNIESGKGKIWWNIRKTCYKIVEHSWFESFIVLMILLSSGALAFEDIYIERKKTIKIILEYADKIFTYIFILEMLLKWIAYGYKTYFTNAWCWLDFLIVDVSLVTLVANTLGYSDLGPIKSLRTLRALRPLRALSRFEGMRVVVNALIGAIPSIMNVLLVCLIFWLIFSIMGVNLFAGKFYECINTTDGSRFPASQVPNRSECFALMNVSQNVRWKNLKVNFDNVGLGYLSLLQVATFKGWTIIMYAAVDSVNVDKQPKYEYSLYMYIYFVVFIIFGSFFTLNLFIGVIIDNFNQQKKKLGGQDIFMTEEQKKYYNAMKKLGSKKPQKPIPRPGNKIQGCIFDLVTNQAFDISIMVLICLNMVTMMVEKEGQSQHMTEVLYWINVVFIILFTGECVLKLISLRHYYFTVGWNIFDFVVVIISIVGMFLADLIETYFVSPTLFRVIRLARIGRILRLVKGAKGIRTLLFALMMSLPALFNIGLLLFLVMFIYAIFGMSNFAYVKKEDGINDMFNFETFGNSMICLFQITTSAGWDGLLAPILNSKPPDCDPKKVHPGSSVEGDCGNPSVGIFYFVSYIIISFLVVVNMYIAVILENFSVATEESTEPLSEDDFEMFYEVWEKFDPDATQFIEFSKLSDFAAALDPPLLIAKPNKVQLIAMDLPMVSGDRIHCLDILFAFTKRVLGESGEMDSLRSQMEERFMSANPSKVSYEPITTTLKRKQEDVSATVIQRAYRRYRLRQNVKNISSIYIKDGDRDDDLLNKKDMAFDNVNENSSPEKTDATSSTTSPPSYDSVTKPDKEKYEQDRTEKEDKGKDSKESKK

With `O=S(=O)(Nc1ncccc1F)c1cc(F)c(Oc2ccc(Cl)cc2-c2cccc3nccn23)cc1F` the IC50 was 23.2 nM.
